For this assay, the target named is T1, Gag-Pol polyprotein [588-1027]/[588-1147] (Human immunodeficiency virus 1, UniProt P04585).
T1 construct: 588-1027; 588-1147
Description: HIV-1 RT Assay. Particulars: pH 8.2; 37 °C. The text has this:
The IC50 of reverse transcriptase is the concentration that inhibits 50% of recombinant HIV-1 RT RNA-directed DNA polymerase activity in vitro.

The source of these data is BindingDB's records for doi:10.1016/s0960-894x(00)00321-8 (Dupont Pharmaceuticals, 2000).

As a reminder, the IC50 is the concentration that gives 50% inhibition. A lower IC50 goes with higher potency.

In turn, `O=C(C1CC1)N1c2ccccc2NC(=O)C1(C#CC1CC1)C(F)(F)F` (stereo not drawn) [4-cyclopropanecarbonyl-3-(2-cyclopropylethynyl)-3-(trifluoromethyl)-1,2,3,4-tetrahydroquinoxalin-2-one] gave an IC50 of 127 nM. This lies in the sub-micromolar range.
Next, `CC(C)C(=O)N1c2ccccc2NC(=O)C1(C#CC1CC1)C(F)(F)F` (stereo not drawn) [3-(2-cyclopropylethynyl)-4-(2-methylpropanoyl)-3-(trifluoromethyl)-1,2,3,4-tetrahydroquinoxalin-2-one]: 160 nM; `O=C(c1ccccc1)N1c2ccccc2NC(=O)C1(C#CC1CC1)C(F)(F)F` (stereo not drawn) [4-benzoyl-3-(2-cyclopropylethynyl)-3-(trifluoromethyl)-1,2,3,4-tetrahydroquinoxalin-2-one]: more than 5000 nM.
